Data reported in patent publication US5998442A, “Benzo [B] thiophene compounds, and compositions for treating bone loss, and hyperlipidemia” (Eli Lilly and Company, priority 1997, dated 1999).
pIC50: −log10 of the molar value.

What was measured:
[1] = test system: serum cholesterol, ovariectomized rats; assay: Serum cholesterol in ovariectomized rats (4 days daily oral dosing); assay type: in vivo, rat (female Sprague Dawley)
Procedure: (§1) In the examples illustrating the methods, a postmenopausal model was used in which effects of different treatments upon circulating lipids were determined.
(§2) Seventy-five day old female Sprague Dawley rats (weight range of 200 to 225 g) were obtained from Charles River Laboratories (Portage, Mich.). The animals were either bilaterally ovariectomized (OVX) or exposed to a Sham surgical procedure at Charles River Laboratories, and then shipped after one week. Upon arrival, they were housed in metal hanging cages in groups of 3 or 4 per cage and had ad libitum access to food (calcium content approximately 0.5%) and water for one week. Room temperature was maintained at 22.2°±1.70° C. with a minimum relative humidity of 40%. The photoperiod in the room was 12 hours light and 12 hours dark.
(§3) After a one week acclimation period (therefore, two weeks post-OVX) daily dosing with test compound was initiated. […] Animals were dosed daily for 4 days. Following the dosing regimen, animals were weighed and anesthetized with a ketamine: Xylazine (2:1, V:V) mixture and a blood sample was collected by cardiac puncture. The animals were then sacrificed by asphyxiation with CO2, the uterus was removed through a midline incision, and a wet uterine weight was determined.
Blood samples were allowed to clot at room temperature for 2 hours, and serum was obtained following centrifugation for 10 minutes at 3000 rpm. Serum cholesterol was determined using a Boehringer Mannheim Diagnostics high performance cholesterol assay. Briefly the cholesterol was oxidized to cholest-4-en-3-one and hydrogen peroxide. The hydrogen peroxide was then reacted with phenol and 4-aminophenazone in the presence of peroxidase to produce a p-quinone imine dye, which was read spectrophotemetrically at 500 nm. Cholesterol concentration was then calculated against a standard curve. The entire assay was automated using a Biomek Automated Workstation. […]
(§4) The data presented in Table 1 below reflects the response of 5 to 6 rats per treatment.

[2] = test system: uterus, ovariectomized rats; assay: Uterine weight in ovariectomized rats (4 days daily oral dosing); assay type: in vivo, rat (female Sprague Dawley)
Procedure: as §1, §2, §3
This uterine response to estrogen is well recognized in the art.
as §4

[3] = test system: Distal Femur Metaphysis, ovariectomized rats; assay: Osteoporosis Test Procedure: distal femur metaphysis X-ray image analysis; assay type: in vivo, rat; settings: oral, 35 days; dose not given
Procedure: (§5) Following the General Preparation Procedure, infra, the rats were treated daily for 35 days (6 rats per treatment group) and sacrificed by carbon dioxide asphyxiation on the 36th day. The 35 day time period was sufficient to allow maximal reduction in bone density, measured as described herein. At the time of sacrifice, the uteri were removed, dissected free of extraneous tissue, and the fluid contents were expelled before determination of wet weight in order to confirm estrogen deficiency associated with complete ovariectomy. […] The uteri were then placed in 10% neutral buffered formalin to allow for subsequent histological analysis. The right femurs were excised and digitilized x-rays generated and analyzed by an image analysis program (NIH image) at the distal metaphysis. The proximal aspect of the tibiae from these animals were also scanned by quantitative computed tomography. […] Distal femur metaphysis and proximal tibiae data presented in Tables 2 and 3 below, respectively are the results of formula I compound treatments compared to intact and ovariectomized test animals. Results are reported as percent protection relative to ovariectomy.

[4] = test system: Proximal Tibiae, ovariectomized rats; assay: Osteoporosis Test Procedure: proximal tibiae quantitative computed tomography; assay type: in vivo, rat; settings: 35 days
Procedure: as §5

[5] = test system: bone, ovariectomized rats; assay: Osteoporosis Test Procedure: bone loss in ovariectomized rats (summary); assay type: in vivo, rat; settings: orally administered
Procedure: as §5

[6] = test system: Uterine Eosinophil Peroxidase (EPO); assay: Uterine Eosinophil Peroxidase (EPO) Assay in ovariectomized rats; assay type: in vivo, rat (female Sprague Dawley); design: Uterine EPO (Vmax): unit not given here
Excerpt: as §2, §3
Uteri were kept at 4° C. until time of enzymatic analysis. The uteri were then homogenized in 50 volumes of 50 mM Tris buffer (pH-8.0) containing 0.005% Triton X-100. Upon addition of 0.01% hydrogen peroxide and 10 mM O-phenylenediamine (final concentrations) in Tris buffer, increase in absorbance was monitored for one minute at 450 nm. The presence of eosonophils in the uterus is an indication of estrogenic activity of a compound. The maximal velocity of a 15 second interval was determined over the initial, linear portion of the reaction curve.
As is expressed in the data below, estrogenicity also was assessed by evaluating the adverse response of eosinophil infiltration into the uterus.
as §4

[7] = test system: MCF-7 breast adenocarcinoma cells; assay: MCF-7 Proliferation Assay (tritiated thymidine); assay type: cell-based; settings: Homo sapiens, MCF7, 48 hours, read-out: IC50
Procedure: MCF-7 breast adenocarcinoma cells (ATCC HTB 22) were maintained in MEM (minimal essential medium, phenol red-free, Sigma, St. Louis, Mo.) supplimented with 10% fetal bovine serum (FBS) (V/V), L-glutamine (2 mM), sodium pyruvate (1 mM), HEPES {(N-[2-hydroxyethyl]piperazine-N'-[2-ethanesulfonic acid]10 mM}, non-essential amino acids and bovine insulin (1 ug/mL) (maintenance medium). Ten days prior to assay, MCF-7 cells were switched to maintenance medium supplemented with 10% dextran coated charcoal stripped fetal bovine serum (DCC-FBS) assay medium) in place of 10% FBS to deplete internal stores of steroids. MCF-7 cells were removed from maintenance flasks using cell dissociation medium (Ca++/Mg++ free HBSS (phenol red-free) supplemented with 10 mM HEPES and 2 mM EDTA). Cells were washed twice with assay medium and adjusted to 80,000 cells/mL. Approximately […] (8,000 cells) were added to flat-bottom microculture wells (Costar 3596) and incubated at 37° C. in a 5% CO2 humidified incubator for 48 hours to allow for cell adherence and equilibration after transfer. Serial dilutions of drugs or DMSO as a diluent control were prepared in assay medium and […] to triplicate microcultures followed by […] assay medium for a final volume of […]. After an additional 48 hours at 37° C. in a 5% CO2 humidified incubator, microcultures were pulsed with tritiated thymidine (1 uCi/well) for 4 hours. Cultures were terminated by freezing at -70° C. for 24 hours followed by thawing and harvesting of microcultures using a Skatron Semiautomatic Cell Harvester. Samples were counted by liquid scintillation using a Wallac BetaPlace b counter. Results in Table 4 below show the IC50 for certain compounds of the instant invention. […]

[8] = orally administered at 0.1 mg/kg/day

Row | Compound | serum cholesterol (in words) [1, 8] | uterine weight (in words) [2, 8] | Distal Femur Metaphysis (X-ray Image Analysis-Gray Score), percent protection relative to ovariectomy [3] [%] | Proximal Tibiae Total Bone Mineral Density (Quantitative Computed Tomography), percent protection relative to ovariectomy ([4]; 0.1 mg/kg oral) [%] | prevention of bone loss (in words) [5] | inhibition in vivo at 0.1 mg/kg ([1]; Rattus norvegicus, 96 h, 0.1 mg/kg PO, read-out: Serum Cholesterol (% decrease vs. OVX)) [%] | inhibition in vivo at 1 mg/kg ([1]; Rattus norvegicus, 96 h, 1.0 mg/kg PO, read-out: Serum Cholesterol (% decrease vs. OVX)) [%] | inhibition in vivo at 10 mg/kg ([1]; Rattus norvegicus, 96 h, 10.0 mg/kg PO, read-out: Serum Cholesterol (% decrease vs. OVX)) [%] | change in vivo at 0.1 mg/kg ([2]; Rattus norvegicus, 96 h, 0.1 mg/kg PO, read-out: Uterine weight (% increase vs. OVX)) [%] | change in vivo at 1 mg/kg ([2]; Rattus norvegicus, 96 h, 1.0 mg/kg PO, read-out: Uterine weight (% increase vs. OVX)) [%] | change in vivo at 10 mg/kg ([2]; Rattus norvegicus, 96 h, 10.0 mg/kg PO, read-out: Uterine weight (% increase vs. OVX)) [%] | Uterine EPO (Vmax) ([6]; 0.1 mg/kg PO) | Uterine EPO (Vmax) ([6]; 1.0 mg/kg PO) | Uterine EPO (Vmax) ([6]; 10.0 mg/kg PO) | Proximal Tibiae Total Bone Mineral Density (Quantitative Computed Tomography), percent protection relative to ovariectomy ([4]; 1.0 mg/kg oral) [%] | Proximal Tibiae Total Bone Mineral Density (Quantitative Computed Tomography), percent protection relative to ovariectomy ([4]; 10.0 mg/kg oral) [%] | pIC50 [7]
1 | C#C[C@]1(O)CC[C@H]2[C@@H]3CCc4cc(O)ccc4[C@H]3CC[C@@]21C [EE2, 17a-ethynyl estradiol, reference compound] | caused a decrease in serum cholesterol | substantially greater than the uterine weight of ovariectomized test animals | 80.7 | 59.4 | prevented this loss |  |  |  |  |  |  |  |  |  |  |  | 
2 | O=C(c1ccc(OCCN2CCCCC2)cc1)c1c(-c2cccc(O)c2)sc2cc(O)ccc12 [Example 12, [2-(3-Hydroxyphenyl)-6-hydroxybenzo[b]thien-3-yl][4-[2-(1-piperidinyl)ethoxy]phenyl]methanone] |  |  |  | -30.9 |  | 24.3 | 52.3 | 49.1 | 15.5 | 22.7 | 16.7 | 2.0 | 2.6 | 2.4 | 51.5 | 79.7 | 8.49
